Results: the supplement of paper PMC10627819

Key:
B. subtilis 168 [1] = test: fitness (endpoint OD595 vs no drug) (fraction); higher = more growth
In short: (§1)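 Bacterial growth was followed in 384-well plates seeded at OD595 0.01, with 30 µl per well, or 55 µl for S. pneumoniae, in TSB, LB Lennox or CY at 37 °C. OD595 was read every 30 min for 14 h, and each reading had the first reading subtracted as background. Fitness is the background-corrected optical density at entry into stationary phase divided by the robust mean of the no-drug control wells. This ratio is capped at 1.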

S. aureus Newman [2] = test: as above
In short: as §1

B. subtilis 168 [3] = test: Bliss interaction score (quartile over a dose matrix) (fitness difference); higher = more antagonism (negative = synergy)
In short: (§2)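 Values were capped at 1 after dividing OD595 at stationary-phase entry by the plate's robust no-drug mean. This ratio is fitness, and single-drug fitness was inferred from the combination data. The Bliss score is observed minus product-expected fitness, given as quartiles over technical, biological and donor/recipient replicates.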

S. aureus DSM 20231 = test: as above
In short: as §2

S. aureus Newman [4] = test: as above
In short: as §2

S. pneumoniae D39V [5] = test: as above
In short: as §2

S. pneumoniae D39V [6] = test: fitness (endpoint OD595 vs no drug) (fraction); higher = more growth; conditions: main component drawn
In short: as §1
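Wherever Bliss interaction score (quartile over a dose matrix) is given: first quartile when negative (synergy) and third quartile when positive (antagonism).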

CC[C@H]1OC(=O)[C@H](C)[C@@H](O[C@H]2C[C@@](C)(OC)[C@@H](O)[C@H](C)O2)[C@H](C)[C@@H](O[C@@H]2O[C@H](C)C[C@H](N(C)C)[C@H]2O)[C@](C)(O)C[C@@H](C)CN(C)[C@H](C)[C@@H](O)[C@]1(C)O [Azithromycin] + CN(C)c1cc(NC(=O)CNC(C)(C)C)c(O)c2c1C[C@H]1C[C@H]3[C@H](N(C)C)C(O)=C(C(N)=O)C(=O)[C@@]3(O)C(O)=C1C2=O [Tigecycline]
fitness
Conditions | partner 0.039 µg/mL | partner 0.078 µg/mL | partner 0.156 µg/mL
B. subtilis 168 [1], first compound 0.25 µg/mL | 0.979 | 0.873 | 0.887
B. subtilis 168 [1], first compound 0.5 µg/mL | 0.886 | 0.811 | 0.839
S. aureus Newman [2], first compound 0.125 µg/mL | 0.892 | 0.908 | 0.855
S. aureus Newman [2], first compound 0.25 µg/mL | 0.88 | 0.868 | 0.912
S. aureus Newman [2], first compound 0.5 µg/mL | 0.641 | 0.666 | 0.622

fitness, B. subtilis 168 [1], one replicate
Conditions | first compound 0.5 µg/mL | first compound 1 µg/mL | first compound 2 µg/mL
partner 0.125 µg/mL | 0.894 | 0.947 | 0.614
partner 0.25 µg/mL | 0.889 | 0.871 | 0.48
partner 0.5 µg/mL | 0.941 | 0.826 | 0.332

Conditions | Bliss interaction score
B. subtilis 168 [3] | 0.0692
S. aureus DSM 20231 | -0.0977
S. aureus Newman [4] | -0.0615
S. pneumoniae D39V [5] | -0.0801

CC[C@H]1OC(=O)[C@H](C)[C@@H](O[C@H]2C[C@@](C)(OC)[C@@H](O)[C@H](C)O2)[C@H](C)[C@@H](O[C@@H]2O[C@H](C)C[C@H](N(C)C)[C@H]2O)[C@](C)(O)C[C@@H](C)CN(C)[C@H](C)[C@@H](O)[C@]1(C)O [Azithromycin] + CC(C1CCC(C(O1)OC2C(CC(C(C2O)OC3C(C(C(CO3)(C)O)NC)O)N)N)N)NC [Gentamicin]
fitness, main component drawn
Conditions | first compound 0.125 µg/mL | first compound 0.25 µg/mL | first compound 0.5 µg/mL
B. subtilis 168 [1], partner 0.0625 µg/mL | – | 0.847 | –
S. aureus Newman [2], partner 0.5 µg/mL | 0.879 | 0.851 | 0.742
S. aureus Newman [2], partner 1 µg/mL | 0.899 | 0.901 | 0.827
S. aureus Newman [2], partner 2 µg/mL | 0.942 | 0.958 | 0.79

fitness, one replicate, main component drawn
Conditions | partner 0.0625 µg/mL | partner 0.125 µg/mL | partner 0.25 µg/mL | partner 0.375 µg/mL | partner 0.75 µg/mL | partner 1.5 µg/mL
B. subtilis 168 [1], first compound 2 µg/mL | 0.482 | 0.322 | 0.337 | – | – | –
S. aureus Newman [2], first compound 0.125 µg/mL | – | – | – | 0.946 | 0.936 | 0.954
S. aureus Newman [2], first compound 0.25 µg/mL | – | – | – | ≥ 1 | 0.943 | 0.911
S. aureus Newman [2], first compound 0.5 µg/mL | – | – | – | 0.711 | 0.62 | 0.571

main component drawn
Conditions | Bliss interaction score
B. subtilis 168 [3] | 0.305
S. aureus DSM 20231 | 0.106
S. aureus Newman [4] | 0.118
S. pneumoniae D39V [5] | -0.0659

CC[C@H]1OC(=O)[C@H](C)[C@@H](O[C@H]2C[C@@](C)(OC)[C@@H](O)[C@H](C)O2)[C@H](C)[C@@H](O[C@@H]2O[C@H](C)C[C@H](N(C)C)[C@H]2O)[C@](C)(O)C[C@@H](C)CN(C)[C@H](C)[C@@H](O)[C@]1(C)O [Azithromycin] + CC[C@H](C)[C@H](N)C1=N[C@H](C(=O)N[C@@H](CC(C)C)C(=O)N[C@H](CCC(=O)O)C(=O)N[C@H](C(=O)N[C@H]2CCCCNC(=O)[C@H](CC(N)=O)NC(=O)[C@@H](CC(=O)O)NC(=O)[C@H](Cc3cnc[nH]3)NC(=O)[C@@H](Cc3ccccc3)NC(=O)[C@H]([C@@H](C)CC)NC(=O)[C@@H](CCCN)NC2=O)[C@@H](C)CC)CS1 [Bacitracin]
fitness, main component drawn
Conditions | partner 18.75 µg/mL | partner 37.5 µg/mL | partner 75 µg/mL | partner 150 µg/mL
B. subtilis 168 [1], first compound 0.25 µg/mL | – | 0.907 | 0.845 | 0.837
B. subtilis 168 [1], first compound 0.5 µg/mL | – | 0.773 | 0.76 | –
S. aureus Newman [2], first compound 0.125 µg/mL | 0.654 | – | 0.0145 | –
S. aureus Newman [2], first compound 0.25 µg/mL | – | 0.0979 | 0.0091 | –
S. aureus Newman [2], first compound 0.5 µg/mL | – | 0.0136 | 0.0029 | –

B. subtilis 168 [1], first compound 2 µg/mL, one replicate, main component drawn
Conditions | fitness
partner 37.5 µg/mL | 0.0502
partner 75 µg/mL | 0.0262
partner 150 µg/mL | 0.0177

main component drawn
Conditions | Bliss interaction score
B. subtilis 168 [3] | 0.0819
S. aureus DSM 20231 | -0.0556
S. aureus Newman [4] | -0.101
S. pneumoniae D39V [5] | 0.0418

CNC(C)C1CCC(N)C(OC2C(N)CC(N)C(OC3OCC(C)(O)C(NC)C3O)C2O)O1 (centres undefined) [Gentamicin] + Cn1nnc(-c2ccc(-c3ccc(N4C[C@H](CO)OC4=O)cc3F)cn2)n1 [Tedizolid]
fitness, S. aureus Newman [2], main component drawn
Conditions | first compound 0.375 µg/mL | first compound 0.5 µg/mL | first compound 0.75 µg/mL | first compound 1 µg/mL | first compound 1.5 µg/mL | first compound 2 µg/mL
partner 0.0625 µg/mL | 0.965 | 0.938 | 0.969 | 0.949 | – | 0.979
partner 0.125 µg/mL | 0.862 | 0.934 | 0.771 | 0.907 | – | 0.905
partner 0.25 µg/mL | 0.176 | 0.605 | 0.131 | – | 0.15 | 0.702

fitness, S. pneumoniae D39V [6]
Conditions | partner 0.03125 µg/mL | partner 0.0625 µg/mL | partner 0.125 µg/mL | partner 0.25 µg/mL | partner 0.5 µg/mL
first compound 2 µg/mL | 0.933 | 0.964 | 0.687 | 0.259 | 0.104
first compound 4 µg/mL | 0.942 | 0.964 | – | 0.211 | 0.105
first compound 8 µg/mL | 0.933 | 0.954 | – | 0.242 | 0.0993

main component drawn
Conditions | Bliss interaction score
B. subtilis 168 [3] | 0.228
S. aureus DSM 20231 | 0.0633
S. aureus Newman [4] | 0.0667
S. pneumoniae D39V [5] | -0.112
